According to ChEMBL document CHEMBL4002566, “S-substituted 3,5-dinitrophenyl 1,3,4-oxadiazole-2-thiols and tetrazole-5-thiols as highly efficient antitubercular agents” (Eur J Med Chem, 2017):
Converted amounts (≈) assume the structure as drawn.

Tests used:
Mycobacterium avium [1] = assay: Antimycobacterial activity against Mycobacterium avium CNCTC My 330/88 after 21 days by micromethod; format: functional; conditions: CNCTC My 330/88, 504 h
[2] = system: Mycobacterium tuberculosis; assay: Antimycobacterial activity against Mycobacterium tuberculosis CNCTC My 331/88 after 14 days by micromethod; format: functional; conditions: CNCTC My 331/88, 336 h
Mycobacterium avium [3] = assay: Antimycobacterial activity against Mycobacterium avium CNCTC My 330/88 after 14 days by micromethod; format: functional; conditions: CNCTC My 330/88, 336 h
Mycobacterium kansasii [4] = assay: Antimycobacterial activity against Mycobacterium kansasii CNCTC My 235/80 after 14 days by micromethod; format: functional; conditions: CNCTC My 235/80, 336 h
Mycobacterium kansasii [5] = assay: Antimycobacterial activity against Mycobacterium kansasii 6509/96 clinical isolate after 14 days by micromethod; format: functional; conditions: 6509/96, 336 h
Candida albicans [6] = assay: Antifungal activity against Candida albicans ATCC 44859 after 24 hrs by broth microdilution method; format: functional; conditions: ATCC 44859, 24 h
Candida albicans [7] = assay: Antifungal activity against Candida albicans ATCC 44859 after 48 hrs by broth microdilution method; format: functional; conditions: ATCC 44859, 48 h
Candida tropicalis [8] = assay: Antifungal activity against Candida tropicalis 156 after 24 hrs by broth microdilution method; format: functional; conditions: Candida tropicalis, 156, 24 h
Candida tropicalis [9] = assay: Antifungal activity against Candida tropicalis 156 after 48 hrs by broth microdilution method; format: functional; conditions: Candida tropicalis, 156, 48 h
Pichia kudriavzevii [10] = assay: Antifungal activity against Candida krusei E28 after 24 hrs by broth microdilution method; format: functional; conditions: E28, 24 h
Pichia kudriavzevii [11] = assay: Antifungal activity against Candida krusei E28 after 48 hrs by broth microdilution method; format: functional; conditions: E28, 48 h
Nakaseomyces glabratus [12] = assay: Antifungal activity against Candida glabrata 20/I after 24 hrs by broth microdilution method; format: functional
Nakaseomyces glabratus [13] = assay: Antifungal activity against Candida glabrata 20/I after 48 hrs by broth microdilution method; format: functional
Trichosporon asahii [14] = assay: Antifungal activity against Trichosporon asahii 1188 after 24 hrs by broth microdilution method; format: functional; conditions: Trichosporon asahii, 1188, 24 h
Trichosporon asahii [15] = assay: Antifungal activity against Trichosporon asahii 1188 after 48 hrs by broth microdilution method; format: functional; conditions: Trichosporon asahii, 1188, 48 h
Aspergillus fumigatus [16] = assay: Antifungal activity against Aspergillus fumigatus 231 after 24 hrs by broth microdilution method; format: functional; conditions: Aspergillus fumigatus, 231, 24 h
Aspergillus fumigatus [17] = assay: Antifungal activity against Aspergillus fumigatus 231 after 48 hrs by broth microdilution method; format: functional; conditions: Aspergillus fumigatus, 231, 48 h
Lichtheimia corymbifera [18] = assay: Antifungal activity against Absidia corymbifera 272 after 24 hrs by broth microdilution method; format: functional; conditions: Lichtheimia corymbifera, 272, 24 h
Lichtheimia corymbifera [19] = assay: Antifungal activity against Absidia corymbifera 272 after 48 hrs by broth microdilution method; format: functional; conditions: Lichtheimia corymbifera, 272, 48 h
[20] = system: Trichophyton mentagrophytes; assay: Antifungal activity against Trichophyton mentagrophytes 445 after 72 hrs by broth microdilution method; format: functional; conditions: Trichophyton mentagrophytes, 445, 72 h
[21] = system: Trichophyton mentagrophytes; assay: Antifungal activity against Trichophyton mentagrophytes 445 after 120 hrs by broth microdilution method; format: functional; conditions: Trichophyton mentagrophytes, 445, 120 h
Staphylococcus aureus [22] = assay: Antibacterial activity against Staphylococcus aureus ATCC 6538 after 24 hrs by broth microdilution method; format: functional; conditions: ATCC 6538, 24 h
Staphylococcus aureus [23] = assay: Antibacterial activity against Staphylococcus aureus ATCC 6538 after 48 hrs by broth microdilution method; format: functional; conditions: ATCC 6538, 48 h
Staphylococcus aureus [24] = assay: Antibacterial activity against methicillin-resistant Staphylococcus aureus HK5996/08 after 24 hrs by broth microdilution method; format: functional; conditions: HK5996/08, 24 h
Staphylococcus aureus [25] = assay: Antibacterial activity against methicillin-resistant Staphylococcus aureus HK5996/08 after 48 hrs by broth microdilution method; format: functional; conditions: HK5996/08, 48 h
[26] = system: Staphylococcus epidermidis; assay: Antibacterial activity against Staphylococcus epidermidis HK6996/08 after 24 hrs by broth microdilution method; format: functional; conditions: HK6996/08, 24 h
[27] = system: Staphylococcus epidermidis; assay: Antibacterial activity against Staphylococcus epidermidis HK6996/08 after 48 hrs by broth microdilution method; format: functional; conditions: HK6996/08, 48 h
Enterococcus sp. [28] = assay: Antibacterial activity against Enterococcus sp. HK14365/08 after 24 hrs by broth microdilution method; format: functional; conditions: HK14365/08, 24 h
Enterococcus sp. [29] = assay: Antibacterial activity against Enterococcus sp. HK14365/08 after 48 hrs by broth microdilution method; format: functional; conditions: HK14365/08, 48 h
Escherichia coli [30] = assay: Antibacterial activity against Escherichia coli ATCC 8739 after 24 hrs by broth microdilution method; format: functional; conditions: ATCC 8739, 24 h
Escherichia coli [31] = assay: Antibacterial activity against Escherichia coli ATCC 8739 after 48 hrs by broth microdilution method; format: functional; conditions: ATCC 8739, 48 h
Klebsiella pneumoniae [32] = assay: Antibacterial activity against Klebsiella pneumoniae HK11750/08 after 24 hrs by broth microdilution method; format: functional; conditions: HK11750/08, 24 h
Klebsiella pneumoniae [33] = assay: Antibacterial activity against Klebsiella pneumoniae HK11750/08 after 48 hrs by broth microdilution method; format: functional; conditions: HK11750/08, 48 h
Klebsiella pneumoniae [34] = assay: Antibacterial activity against extended spectrum beta-lactamase producing Klebsiella pneumoniae HK14368/08 after 24 hrs by broth microdilution method; format: functional; conditions: HK14368/08, 24 h
Klebsiella pneumoniae [35] = assay: Antibacterial activity against extended spectrum beta-lactamase producing Klebsiella pneumoniae HK14368/08 after 48 hrs by broth microdilution method; format: functional; conditions: HK14368/08, 48 h
Pseudomonas aeruginosa [36] = assay: Antibacterial activity against Pseudomonas aeruginosa ATCC 9027 after 24 hrs by broth microdilution method; format: functional; conditions: ATCC 9027, 24 h
Pseudomonas aeruginosa [37] = assay: Antibacterial activity against Pseudomonas aeruginosa ATCC 9027 after 48 hrs by broth microdilution method; format: functional; conditions: ATCC 9027, 48 h
[38] = Cytotoxicity against human HuH7 cells assessed as cell viability at 30 uM after 48 hrs by MTS assay relative to control; format: cell-based, Huh-7; conditions: read-out: Activity
Huh-7 = assay: Cytotoxicity against human HuH7 cells assessed as cell viability after 48 hrs by MTS assay; format: cell-based; conditions: Huh-7, 48 h
A-431 = assay: Cytotoxicity against human A431 cells assessed as cell viability after 48 hrs by MTS assay; format: cell-based; conditions: A-431, 48 h
[39] = Cytotoxicity against human A431 cells assessed as cell viability at 30 uM after 48 hrs by MTS assay relative to control; format: cell-based, A-431; conditions: read-out: Activity
MDCK = assay: Cytotoxicity against MDCK cells assessed as cell viability after 48 hrs by MTS assay; format: cell-based; conditions: Canis lupus familiaris
[40] = Cytotoxicity against MDCK cells assessed as cell viability at 30 uM after 48 hrs by MTS assay relative to control; format: cell-based, Canis lupus familiaris; conditions: dog, read-out: Activity
HepG2 = assay: Cytotoxicity against human HepG2 cells assessed as cell viability after 48 hrs by MTS assay; format: cell-based; conditions: HepG2, 48 h
[41] = Cytotoxicity against human HepG2 cells assessed as cell viability at 30 uM after 48 hrs by MTS assay relative to control; format: cell-based; conditions: read-out: Activity
[42] = Selectivity index, ratio of IC50 for human HepG2 cells to MIC for Mycobacterium tuberculosis; format: toxicity; conditions: read-out: Selectivity Index
[43] = system: Mycobacterium tuberculosis; assay: Antimycobacterial activity against Mycobacterium tuberculosis CNCTC My 331/88 after 21 days by micromethod; format: functional; conditions: CNCTC My 331/88, 504 h
Mycobacterium kansasii [44] = assay: Antimycobacterial activity against Mycobacterium kansasii CNCTC My 235/80 after 21 days by micromethod; format: functional; conditions: CNCTC My 235/80, 504 h
Mycobacterium kansasii [45] = assay: Antimycobacterial activity against Mycobacterium kansasii CNCTC My 235/80 after 7 days by micromethod; format: functional; conditions: CNCTC My 235/80, 168 h
Mycobacterium kansasii [46] = assay: Antimycobacterial activity against Mycobacterium kansasii 6509/96 clinical isolate after 21 days by micromethod; format: functional; conditions: 6509/96, 504 h
Mycobacterium kansasii [47] = assay: Antimycobacterial activity against Mycobacterium kansasii 6509/96 clinical isolate after 7 days by micromethod; format: functional; conditions: 6509/96, 168 h

SMILES: O=[N+]([O-])c1cc(-c2nnc(SCc3ccccc3Cl)o2)cc([N+](=O)[O-])c1
- MIC (Mycobacterium avium [1]): 8 µM (≈ 3.14 µg/mL)
- MIC [2]: 0.03 µM (≈ 0.0118 µg/mL)
- MIC (Mycobacterium avium [3]): 4 µM (≈ 1.57 µg/mL)
- MIC (Mycobacterium kansasii [4]): 0.125 µM (≈ 0.0491 µg/mL)
- MIC (Mycobacterium kansasii [5]): 0.06 µM (≈ 0.0236 µg/mL)
- MIC (Candida albicans [6]): > 500 µM
- MIC (Candida albicans [7]): > 500 µM
- MIC (Candida tropicalis [8]): > 500 µM
- MIC (Candida tropicalis [9]): > 500 µM
- MIC (Pichia kudriavzevii [10]): > 500 µM
- MIC (Pichia kudriavzevii [11]): > 500 µM
- MIC (Nakaseomyces glabratus [12]): > 500 µM
- MIC (Nakaseomyces glabratus [13]): > 500 µM
- MIC (Trichosporon asahii [14]): > 500 µM
- MIC (Trichosporon asahii [15]): > 500 µM
- MIC (Aspergillus fumigatus [16]): > 500 µM
- MIC (Aspergillus fumigatus [17]): > 500 µM
- MIC (Lichtheimia corymbifera [18]): > 500 µM
- MIC (Lichtheimia corymbifera [19]): > 500 µM
- MIC [20]: > 500 µM
- MIC [21]: > 500 µM
- MIC (Staphylococcus aureus [22]): > 500 µM
- MIC (Staphylococcus aureus [23]): > 500 µM
- MIC (Staphylococcus aureus [24]): > 500 µM
- MIC (Staphylococcus aureus [25]): > 500 µM
- MIC [26]: > 500 µM
- MIC [27]: > 500 µM
- MIC (Enterococcus sp. [28]): > 500 µM
- MIC (Enterococcus sp. [29]): > 500 µM
- MIC (Escherichia coli [30]): > 500 µM
- MIC (Escherichia coli [31]): > 500 µM
- MIC (Klebsiella pneumoniae [32]): > 500 µM
- MIC (Klebsiella pneumoniae [33]): > 500 µM
- MIC (Klebsiella pneumoniae [34]): > 500 µM
- MIC (Klebsiella pneumoniae [35]): > 500 µM
- MIC (Pseudomonas aeruginosa [36]): > 500 µM
- MIC (Pseudomonas aeruginosa [37]): > 500 µM
- viability at 48 h, 30 µM [38]: 144%
- IC50 (Huh-7): > 30 µM
- IC50 (A-431): > 30 µM
- viability at 48 h, 30 µM [39]: 91%
- IC50 (MDCK): > 30 µM
- viability at 48 h, 30 µM [40]: 115%
- IC50 (HepG2): > 30 µM
- viability at 48 h, 30 µM [41]: 129%
- selectivity ratio [42]: > 1000
- MIC [43]: 0.03 µM (≈ 0.0118 µg/mL)
- MIC (Mycobacterium kansasii [44]): 0.125 µM (≈ 0.0491 µg/mL)
- MIC (Mycobacterium kansasii [45]): 0.06 µM (≈ 0.0236 µg/mL)
- MIC (Mycobacterium kansasii [46]): 0.125 µM (≈ 0.0491 µg/mL)
- MIC (Mycobacterium kansasii [47]): 0.06 µM (≈ 0.0236 µg/mL)
